We go through one compound from ChEMBL document CHEMBL1137733, “Studies on the interaction of caffeine with bovine hemoglobin” (Eur J Med Chem, 2009).

The target in the series is albumin (Homo sapiens, UniProt P02768). The series is described as follows: Binding affinity to human plasma albumin by ultracentrifugation. To be noted: read-out: PB (converted). It counts as cell-free.
albumin, sequence (P02768 whole entry): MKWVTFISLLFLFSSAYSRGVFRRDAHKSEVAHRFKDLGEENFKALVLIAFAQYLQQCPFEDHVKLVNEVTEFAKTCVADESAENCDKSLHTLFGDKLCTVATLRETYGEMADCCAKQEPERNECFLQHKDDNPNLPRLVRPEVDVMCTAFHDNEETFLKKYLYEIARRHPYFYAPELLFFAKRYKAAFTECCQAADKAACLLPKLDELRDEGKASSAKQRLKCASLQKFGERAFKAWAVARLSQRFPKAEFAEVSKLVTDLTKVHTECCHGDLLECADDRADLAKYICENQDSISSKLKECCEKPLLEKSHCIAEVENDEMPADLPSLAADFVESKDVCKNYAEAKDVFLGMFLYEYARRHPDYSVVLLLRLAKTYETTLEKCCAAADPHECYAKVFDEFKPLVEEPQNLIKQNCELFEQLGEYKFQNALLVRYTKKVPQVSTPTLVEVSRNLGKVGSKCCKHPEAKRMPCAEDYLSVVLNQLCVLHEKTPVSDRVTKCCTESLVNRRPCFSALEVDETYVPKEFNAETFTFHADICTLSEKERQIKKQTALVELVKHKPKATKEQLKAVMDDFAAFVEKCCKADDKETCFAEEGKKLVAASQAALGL

Take `Cn1c(=O)c2c(ncn2C)n(C)c1=O` [CAFFEINE]: the fraction unbound is 0.622.
